Test results as given in patent US6500222B2, “Diureides and their use” (priority 1999, dated 2002).

Experiments:
[1] = system: mustard seedlings (Sinapis alba, 'Maxi'); experiment: Mustard seedling test on plant tolerance, growth and yield
ryegrass = experiment: Crop production experiment in Mitscherlich containers with ryegrass as test crop; details: 2.4 g of N per container
[2] = N fertilization 100 mg/container, DAT 13
[3] = N fertilization 100 mg/container, DAT 23
[4] = N fertilization 200 mg/container, DAT 13
[5] = N fertilization 200 mg/container, DAT 23
[6] = N fertilization 400 mg/container, DAT 13
[7] = N fertilization 400 mg/container, DAT 23

Substance	"Greenness" (%) (N supply) 100% = dark green [1, 2]	"Greenness" (%) (N supply) 100% = dark green [1, 3]	FW yield [1, 3] [g/container]	N content in the DM (%) [1, 3] [%]	N uptake in the shoot [1, 3] [mg/container]	"Greenness" (%) (N supply) 100% = dark green [1, 4]	"Greenness" (%) (N supply) 100% = dark green [1, 5]	FW yield [1, 5] [g/container]	Dry-matter production (ryegrass; day 16 post-fertilization) [g/container]	Nitrogen uptake (ryegrass; day 16 post-fertilization) [mg/container]	Dry-matter production (ryegrass; day 30 post-fertilization) [g/container]	Nitrogen uptake (ryegrass; day 30 post-fertilization) [mg/container]	Dry-matter production (ryegrass; day 45 post-fertilization) [g/container]	Nitrogen uptake (ryegrass; day 45 post-fertilization) [mg/container]	Dry-matter production (ryegrass; day 58 post-fertilization) [g/container]	Nitrogen uptake (ryegrass; day 58 post-fertilization) [mg/container]	Dry-matter production (ryegrass; day 78 post-fertilization) [g/container]	Nitrogen uptake (ryegrass; day 78 post-fertilization) [mg/container]	Dry-matter production (ryegrass; day 125 post-fertilization) [g/container]	Nitrogen uptake (ryegrass; day 125 post-fertilization) [mg/container]	other results
Urea [reference compound]	100	100	19.6	4.3	84	100	100	1.6	7.7	480	5.6	311	8.6	404	8.6	410	5.9	127	1.4	33	N content in the DM (%) [1, 5]: 6.5%; N uptake in the shoot [1, 5]: 10 mg/container; Dry-matter production (ryegrass; day 100 post-fertilization): 2.3 g/container; Nitrogen uptake (ryegrass; day 100 post-fertilization): 50 mg/container; Dry-matter production (ryegrass; day 174 post-fertilization): 1.4 g/container; Nitrogen uptake (ryegrass; day 174 post-fertilization): 27 mg/container
bis(N′-potassium sulfamate)malonic acid diureide [IaB]	70	30	7.1	3.1	46	80	85	4.7													N content in the DM (%) [1, 5]: 5.3%; N uptake in the shoot [1, 5]: 80 mg/container; "Greenness" (%) (N supply) 100% = dark green [1, 6]: 85%; "Greenness" (%) (N supply) 100% = dark green [1, 7]: 85%; FW yield [1, 7]: 3.7 g/container; N content in the DM (%) [1, 7]: 6.6%; N uptake in the shoot [1, 7]: 90 mg/container
bis(N′-potassium sulfamate)succinic diureide [IaA]	30	30	10.4	1.5	27	30	30	10.4													N content in the DM (%) [1, 5]: 1.7%; N uptake in the shoot [1, 5]: 28 mg/container; "Greenness" (%) (N supply) 100% = dark green [1, 6]: 30%; "Greenness" (%) (N supply) 100% = dark green [1, 7]: 30%; FW yield [1, 7]: 10.6 g/container; N content in the DM (%) [1, 7]: 1.9%; N uptake in the shoot [1, 7]: 29 mg/container
fumaric acid diureide [Compound 1C]									4.2	112	1.9	60	2.1	69	3.4	108	3.3	104	5.1	138	
malonic acid diureide [Compound 1A]									5.7	185	2.5	97	3.8	130	3.1	119	5.4	180	9.3	283	Dry-matter production (ryegrass; day 100 post-fertilization): 6.3 g/container; Nitrogen uptake (ryegrass; day 100 post-fertilization): 204 mg/container; Dry-matter production (ryegrass; day 174 post-fertilization): 7.2 g/container; Nitrogen uptake (ryegrass; day 174 post-fertilization): 154 mg/container; Dry-matter production (ryegrass; day 252 post-fertilization): 4.5 g/container; Nitrogen uptake (ryegrass; day 252 post-fertilization): 145 mg/container
succinic acid diureide [Compound 1B]									4	114	1.7	50	1.3	36	2.2	69	4.6	161	9.6	281	
